Values joined by “and” are separate entries in the source; they are usually repeats but may differ in a detail not shown here. Identical values can stand only once. Numbers after ± are expanded uncertainties.
How the values were obtained:
[1] = refractive index (Na D-line) (dimensionless); xn = mol fraction of the nth substance listed; settings: 100.8 kPa, Liquid, Standard Abbe refractometry
[2] = xn = mol fraction of the nth substance listed; settings: 100.8 kPa, Liquid
[3] = refractive index (Na D-line) (dimensionless); settings: 101.33 kPa, Liquid, Standard Abbe refractometry
[4] = 100.8 kPa, Liquid
[5] = 298.15 K, Falling or rolling sphere viscometry
[6] = 308.15 K, Falling or rolling sphere viscometry
[7] = 318.15 K, Falling or rolling sphere viscometry

Structure (SMILES)	refractive index ([1]; 298.15 K, x1 = 1)	refractive index ([1]; 308.15 K, x1 = 1)	refractive index ([1]; 318.15 K, x1 = 1)	mass density ([2]; 298.15 K, x1 = 1)	mass density ([2]; 308.15 K, x1 = 1)	mass density ([2]; 318.15 K, x1 = 1)	refractive index ([3]; 298.15 K)	refractive index ([3]; 308.15 K)	refractive index ([3]; 318.15 K)	mass density ([4]; 298.15 K)	viscosity [4, 5]	mass density ([4]; 308.15 K)	viscosity [4, 6]	mass density ([4]; 318.15 K)	viscosity [4, 7]	further results
CCO [ethanol] + CC(C)(C)O	1.35932 ± 0.00031	1.35509 ± 0.00031	1.351 ± 0.00031	785.1 ± 0.24 kg/m3	776.43 ± 0.25 kg/m3	767.61 ± 0.26 kg/m3	–	–	–	–	–	–	–	–	–	viscosity ([2]; 298.15 K, Falling or rolling sphere viscometry, x1 = 1): 1.085 ± 0.014 mPa·s; viscosity ([2]; 308.15 K, Falling or rolling sphere viscometry, x1 = 1): 0.906 ± 0.014 mPa·s; viscosity ([2]; 318.15 K, Falling or rolling sphere viscometry, x1 = 1): 0.756 ± 0.013 mPa·s
CCO [ethanol] + CC(C)CC(C)(C)C	1.35932 ± 0.00031	1.35509 ± 0.00031	1.35095 ± 0.00031	785.1 ± 0.24 kg/m3	776.43 ± 0.25 kg/m3	767.61 ± 0.26 kg/m3	–	–	–	–	–	–	–	–	–	viscosity ([2]; 298.15 K, x1 = 1): 1.085 ± 0.02 mPa·s; viscosity ([2]; 308.15 K, x1 = 1): 0.906 ± 0.018 mPa·s; viscosity ([2]; 318.15 K, x1 = 1): 0.756 ± 0.016 mPa·s
CC(C)(C)O [2-methylpropan-2-ol]	–	–	–	–	–	–	1.38481 ± 0.00033	1.3796 ± 0.00033	1.37416 ± 0.00033	780.99 ± 0.31 kg/m3	4.43 ± 0.04 mPa·s	770.7 ± 0.31 kg/m3	2.622 ± 0.027 mPa·s	760.05 ± 0.32 kg/m3	1.708 ± 0.02 mPa·s	–
CC(C)CC(C)(C)C [2,2,4-trimethylpentane]	–	–	–	–	–	–	1.38898 ± 0.00032	1.38398 ± 0.00032	1.37898 ± 0.00032	687.89 ± 0.32 kg/m3	–	679.55 ± 0.33 kg/m3	–	671.1 ± 0.34 kg/m3	–	viscosity ([4]; 298.15 K): 0.474 ± 0.014 mPa·s and 0.475 ± 0.014 mPa·s; viscosity ([4]; 308.15 K): 0.425 ± 0.014 mPa·s; viscosity ([4]; 318.15 K): 0.38 ± 0.013 mPa·s
CCO [ethanol]	–	–	–	–	–	–	1.35932 ± 0.00031	1.35509 ± 0.00031	1.351 ± 0.00031 and 1.35095 ± 0.00031	785.1 ± 0.24 kg/m3	1.085 ± 0.014 mPa·s	776.43 ± 0.25 kg/m3	0.906 ± 0.014 mPa·s	767.61 ± 0.26 kg/m3	0.756 ± 0.013 mPa·s	–
CC(C)CC(C)(C)C [2,2,4-trimethylpentane] + CC(C)(C)O	–	–	–	–	–	–	–	–	–	–	–	–	–	–	–	refractive index ([1]; 298.15 K, x2 = 0): 1.38898 ± 0.00032; refractive index ([1]; 308.15 K, x2 = 0): 1.38398 ± 0.00032; refractive index ([1]; 318.15 K, x2 = 0): 1.37898 ± 0.00032; mass density ([2]; 298.15 K, x2 = 0): 687.89 ± 0.32 kg/m3; viscosity ([2]; 298.15 K, x2 = 0): 0.475 ± 0.018 mPa·s; mass density ([2]; 308.15 K, x2 = 0): 679.55 ± 0.33 kg/m3; viscosity ([2]; 308.15 K, x2 = 0): 0.425 ± 0.017 mPa·s; mass density ([2]; 318.15 K, x2 = 0): 671.1 ± 0.34 kg/m3; viscosity ([2]; 318.15 K, x2 = 0): 0.38 ± 0.016 mPa·s

Reference: the NIST ThermoML archive (doi:10.1021/je0501639)
